Measured values published in US20250163057A1, “DCN-1 MODULATING COMPOUNDS AND METHODS OF USE THEREOF” (Cellarity, Inc., priority 2023, published 2025).
Read-outs that look alike come from different tables or passages of the source.

Molecular target: DCN1 (DCUND1) protein PONY domain (Homo sapiens (Human), UniProt Q96GG9)
Assay: TR-FRET assay, DCN1 binding with FAM-labeled probe
Summary of the method: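 Binding was read as the TR-FRET ratio between a FAM-tagged inhibitor probe and Tb-labeled biotinylated E. coli-expressed DCN1 PONY domain, measured 1, 5 and 24 h after compound addition. The two setups used 5 nM protein/20 nM FAM-probe or 0.31 nM protein/900 nM total probe (100 nM labeled), in TritonX buffer with 200 mM NaCl.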

[1] = 24 hr after treatment with compound, read-out: TR FRET IC50 24 hr
[2] = TR FRET IC50 1 hr (nM), 1 hr after treatment with compound

Sequence of DCN1 (DCUND1) protein PONY domain (Q96GG9 60-248): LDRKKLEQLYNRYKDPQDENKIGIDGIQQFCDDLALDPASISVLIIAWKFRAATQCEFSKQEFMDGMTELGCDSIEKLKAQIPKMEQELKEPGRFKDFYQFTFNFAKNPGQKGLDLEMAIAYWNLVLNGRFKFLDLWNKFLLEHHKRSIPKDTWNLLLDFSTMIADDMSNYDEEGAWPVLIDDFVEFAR

CCN1C(=O)[C@@H](NC(=O)C(C)c2cccc(F)c2)[C@@H](C2CC2)c2c(C(=O)N3[C@H](C#N)C[C@H]4C[C@H]43)nn(C3CCOCC3)c21 (stereo partly shown) [Compound I-440]
IC50 [1]: 1000 to 3000 nM
IC50 [2]: 1000 to 3000 nM

CCN1C(=O)[C@@H](CC(=O)CC2CC2)[C@@H](C2CC2)c2c(C(=O)N3[C@H](C#N)C[C@H]4C[C@H]43)nn(C3CCOCC3)c21 [Compound I-466]
IC50 [1]: 1000 to 3000 nM
IC50 [2]: 1000 to 3000 nM

CCN1C(=O)[C@@H](NC(=O)c2cccc(C(F)(F)F)c2C)[C@@H](C2CC2)c2c(C(=O)N3[C@H](C#N)C[C@H]4C[C@H]43)nn(C3CCOCC3)c21 [Compound I-468]
IC50 [1]: ≤ 200 nM
IC50 (read-out: TR FRET IC50 1 hr, 1 hr after treatment with compound): ≤ 200 nM

CCN1C(=O)[C@@H](NC(=O)c2sc(NC(C)=O)nc2C)[C@@H](C2CC2)c2c(C(=O)N3[C@H](C#N)C[C@H]4C[C@H]43)nn(C3CCOCC3)c21 [Compound I-471]
IC50 [1]: 1000 to 3000 nM
IC50 [2]: 1000 to 3000 nM

CCN1C(=O)[C@@H](NC(=O)c2ccn(C(C)C)n2)[C@@H](C2CC2)c2c(C(=O)N3[C@H](C#N)C[C@H]4C[C@H]43)nn(C3CCOCC3)c21 [Compound I-472]
IC50 [1]: ≤ 200 nM
IC50 [2]: 200 to 1000 nM

CCN1C(=O)[C@@H](NC(=O)c2c(Cl)cccc2Cl)[C@@H](C2CC2)c2c(C(=O)N3[C@H](C#N)C[C@H]4C[C@H]43)nn(C3CCOCC3)c21 [Compound I-473]
IC50 [1]: 1000 to 3000 nM
IC50 [2]: 1000 to 3000 nM

CCN1C(=O)[C@@H](NC(=O)c2cc(S(C)(=O)=O)ccc2F)[C@@H](C2CC2)c2c(C(=O)N3[C@H](C#N)C[C@H]4C[C@H]43)nn(C3CCOCC3)c21 [Compound I-475]
IC50 [1]: 1000 to 3000 nM
IC50 [2]: 1000 to 3000 nM

CCN1C(=O)[C@@H](NC(=O)c2ccc(F)c(F)c2OC)[C@@H](C2CC2)c2c(C(=O)N3[C@H](C#N)C[C@H]4C[C@H]43)nn(C3CCOCC3)c21 [Compound I-502]
IC50 [1]: 200 to 1000 nM
IC50 [2]: 1000 to 3000 nM

CCN1C(=O)[C@@H](NC(=O)CC2=C(C)Cc3ccc(F)cc32)[C@@H](C2CC2)c2c(C(=O)N3[C@H](C#N)C[C@H]4C[C@H]43)nn(C3CCOCC3)c21 [Compound I-504]
IC50 [1]: 1000 to 3000 nM
IC50 [2]: 1000 to 3000 nM

CCN1C(=O)[C@@H](NC(=O)c2cccc(N3CCCC3=O)c2)[C@@H](C2CC2)c2c(C(=O)N3[C@H](C#N)C[C@H]4C[C@H]43)nn(C3CCOCC3)c21 [Compound I-505]
IC50 [1]: 1000 to 3000 nM
IC50 [2]: 1000 to 3000 nM

CCN1C(=O)[C@@H](NC(=O)c2cnn(CC(F)(F)F)c2)[C@@H](C2CC2)c2c(C(=O)N3[C@H](C#N)C[C@H]4C[C@H]43)nn(C3CCOCC3)c21 [Compound I-507]
IC50 [1]: 1000 to 3000 nM
IC50 [2]: 1000 to 3000 nM

CCN1C(=O)[C@@H](NC(=O)c2ccc(C3CC3)cc2)[C@@H](C2CC2)c2c(C(=O)N3[C@H](C#N)C[C@H]4C[C@H]43)nn(C3CCOCC3)c21 [Compound I-508]
IC50 [1]: ≤ 200 nM
IC50 [2]: 1000 to 3000 nM

CCN1C(=O)[C@@H](NC(=O)CN2C(=O)CSc3ccccc32)[C@@H](C2CC2)c2c(C(=O)N3[C@H](C#N)C[C@H]4C[C@H]43)nn(C3CCOCC3)c21 [Compound I-510]
IC50 [1]: 1000 to 3000 nM
IC50 [2]: 1000 to 3000 nM

CCN1C(=O)[C@@H](NC(=O)Cc2ccc(C)cc2C)[C@@H](C2CC2)c2c(C(=O)N3[C@H](C#N)C[C@H]4C[C@H]43)nn(C3CCOCC3)c21 [Compound I-511]
IC50 [1]: 1000 to 3000 nM
IC50 [2]: 1000 to 3000 nM

CCN1C(=O)[C@@H](NC(=O)c2nc3c(s2)CN(C)CC3)[C@@H](C2CC2)c2c(C(=O)N3[C@H](C#N)C[C@H]4C[C@H]43)nn(C3CCOCC3)c21 [Compound I-512]
IC50 [1]: 1000 to 3000 nM
IC50 [2]: 1000 to 3000 nM

CCN1C(=O)[C@@H](NC(=O)c2cnc(C(F)(F)F)s2)[C@@H](C2CC2)c2c(C(=O)N3[C@H](C#N)C[C@H]4C[C@H]43)nn(C3CCOCC3)c21 [Compound I-513]
IC50 [1]: 1000 to 3000 nM
IC50 [2]: 1000 to 3000 nM

CCN1C(=O)[C@@H](NC(=O)C2CC2C(F)(F)F)[C@@H](C2CC2)c2c(C(=O)N3[C@H](C#N)C[C@H]4C[C@H]43)nn(C3CCOCC3)c21 (stereo partly shown) [Compound I-523]
IC50 [1]: 1000 to 3000 nM
IC50 [2]: 1000 to 3000 nM
